Laboratory results as given in patent US20040141955A1, “Compositions related to a novel endophytic fungi and methods of use” (priority 2001, published 2004).
Like-named read-outs stand apart in the source and are kept apart here.

How the values were obtained:
R. solani = format: cell-based; conditions: for Percent Inibition of Colony growth at 3 days: 30 μl (0.92) of compound, or 30 μl each (0.92) in mixtures, per 65 mL head space; for Colony diameter at 3 days (mm) / Viability: single compound; for Colony diameter at 3 days (mm): untreated control 70-72 mm; for lethal effect on R. solani: similar to that observed when R. solani is exposed to M. albus
Protocol: In one set of experiments, a Petri plate divided by plastic walls into 3 equal spaces was used for the assay. A plug of R. solani was placed in one section of the Petri plate containing PDA. On another section of the plate, a lx2 cm piece of sterile filter paper was loaded with the test compound(s). All plates were wrapped with two layers of saran film and incubated at room temperature. The head space in each plate was 65 ml. Removing the agar plug and placing it onto a fresh PDA Petri plate determined the viability of R. Solani exposed to each test compound. Control experiments were also conducted along side without test compound(s).
The diameter of R. solani colonies on untreated control plates was 70-72 mm. The (+) symbol in the viability column of each table above indicates continued viability of the organism after exposure to and removal from the given compound or mixture, while the (−) symbol indicates death of the organism. Multiple (+) and (−) symbols in the same column indicate the results of multiple trials.
Synergism between the volatile organic components produced by M. albus was studied using the method of Limpel as described by Richer (Richer, D. L. 1987). The determination of synergy as described by Limpel can be represented by the following equation: […]
Where Ee is the expected additive effect of the two antifungal compounds, X is the observed percentage of inhibition of the test organism when antifungal agent A is applied alone at the rate used in the mixture, and Y is the observed percentage inhibition of the test organism when antifungal agent B is used alone at the rate used in the mixture.
Experimental studies were set up to determine if synergy exists between the components produced by M. albus. The biological activity of individual volatile organic compounds and mixtures of volatile organic compounds was tested according to the method described in Example 10 above. The observed inhibitory effects of the volatile organic compounds were then compared to the expected additive effects as calculated from the equation above.

[1] = system: selected group of 7 test fungi; test: Artificial atmosphere test of esters and individual esters; format: cell-based
Protocol: In another set of experiments, test solutions were prepared by placing the volatile organic compounds isolatable from Muscodor albus cultures grown on potato dextrose agar (PDA) in vials in the relative proportions that they occurred in the gas phase of such cultures. The test mixture was placed in a presterilized microcup (4×6 mm) located in the center of a Petri plate containing PDA. When not in use, the mixture was stored at 0° C. The test organisms, freshly growing and excised on 3 mm^3 agar blocks (at least 3 agar blocks per test fungus), were placed 2-3 cm from the microcup and the plate wrapped with two layers of parafilm and grown for 2 or more days at 23° C. Measurements were made on mycelial growth from the edge of the agar blocks. However, in the case of bacteria and Candida albicans they were streaked on the test side of the PDA plate and checked for new visible growth and viability by restreaking from the original area of the agar plate that had been inoculated. Appropriate controls were also set up in which no test solution was placed into the microcup. Tests on 3.2-90 μl of the artificial mixture per 50 CC of air space above the PDA plate were done on 3 replicates in order to obtain IC50 data for each test organism. Viability of the test microbes was made by aseptically removing the small agar block and placing it on a PDA plate and observing growth after 1-3 days.
To determine the relative biological activity of each class of compounds, individual classes were also tested in the relative amounts in which they occur at the optimum concentration of the entire mixture, which is 60 μl of test mixture per 50 CC of air space above the culture in a standard Petri plate. For instance, the esters represent 44% of the mixture of the identified volatiles and were tested at 26.4 μl/50 CC (0.53 μl/CC) air space and the same procedure was used for each of the other classes of compounds that were identified. This was done with a selected group of 7 test fungi.
Each compound in the class of esters was individually evaluated. […]

[2] = amount 0.92 (60 μl/65 mL head space)

`CCCC(=O)OCC` [Ethyl butyrate] was tested. Which “Percent Inibition of Colony growth at 3 days” value (R. solani) did it give?
Its value is 86%.

What about the “Colony diameter at 3 days (mm)” value (R. solani; [2]) of the same compound?
The value was “no growth”.

How did the “Colony diameter at 3 days (mm)” value (R. solani; [2]) turn out when `CCC(C)CO` (centres unmarked) [2-Methyl-1-butanol] was run?
Its value is “no growth”.

With `CC(=O)OCCC(C)C` [3-methylbutyl acetate, 1-butanol, 3-methyl, acetate] as the compound, how does the “death of test fungus” value ([1]; standard 3 day exposure period) read?
Its value is “under no conditions in any test, was death of any test fungus observed”.

And the “inhibitory bioactivity of the individual ester” value ([1]; tested at the level of 0.32 μl/CC (62% of all identified combined esters))?
The value was “almost completely mimicked the results of all esters”.

Which “Percent Inibition of Colony growth at 3 days” value (R. solani) does the source give for `CCOC(=O)CC` [Ethyl propionate] here?
Its value is 76%.

Which “lethal effect on R. solani” value (R. solani) does the source give for `CC(C)CCO` [3-methyl-1-butanol] here?
The value was “lethal effect”.

What about the “Colony diameter at 3 days (mm)” value (R. solani; amount 0.46 (30 μl/65 mL head space)) of the same compound?
Its value is “fuzz”.

What about the Viability (R. solani; [2]) of the same compound?
The Viability was “no”.

What about the “Colony diameter at 3 days (mm)” value (R. solani; [2]) of the same compound?
The value was “no growth”.

Which “inhibitory bioactivity of the individual ester” value ([1]; each ester individually evaluated, comparable test) does the source give for `CC(C)CCOC(=O)C(C)C` [propionic acid, 2-methyl, 3-methylbutyl ester] here?
The value was “minimal inhibitory bioactivity”.

With `CC(C)C(=O)O` [Isobutyric acid] as the compound, how does the “lethal effect on R. solani” value (R. solani) read?
Its value is “lethal effect”.

What about the Viability (R. solani; [2]) of the same compound?
The Viability was “no”.

And the “Colony diameter at 3 days (mm)” value (R. solani; [2])?
The value was “no growth”.
